Results from PMC8119466, “A screen of FDA-approved drugs identifies inhibitors of protein tyrosine phosphatase 4A3 (PTP4A3 or PRL-3)” (Scientific Reports, 2021).
Read-outs that look alike come from different tables or passages of the source.

Assays:
Type in all cases: biochemical
recombinant PRL-1 = target: T1, recombinant PRL-1 (Homo sapiens, UniProt Q93096); assay: In vitro phosphatase assay (DiFMUP hydrolysis), PRL-1; note: test concentration or dose not given here
T1 construct: 6xHis (N, cleaved yes); made in house; host or cells: E. coli One Shot BL21 Star
T1 sequence (Q93096 1-173): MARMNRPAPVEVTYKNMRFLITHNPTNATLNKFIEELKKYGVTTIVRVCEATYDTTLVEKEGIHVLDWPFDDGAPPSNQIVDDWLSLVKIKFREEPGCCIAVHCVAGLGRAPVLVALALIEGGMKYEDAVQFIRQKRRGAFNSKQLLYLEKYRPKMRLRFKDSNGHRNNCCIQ

recombinant PRL-3 = target: T2, recombinant PRL-3 (Homo sapiens, UniProt O75365); assay: In vitro phosphatase assay (DiFMUP hydrolysis), PRL-3; note: test concentration or dose not given here
T2 construct: 6xHis (N, cleaved yes); made in house; host or cells: E. coli One Shot BL21 Star

recombinant PRL-2 = target: T3, recombinant PRL-2 (Homo sapiens, UniProt Q12974); assay: In vitro phosphatase assay (DiFMUP hydrolysis), PRL-2;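 note: PRL-2 activity read as DiFMUP hydrolysis after 20 min at room temperature with drug, enzyme first pre-reduced at 4 °C for 20 min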
T3 construct: 6xHis (N, cleaved yes); made in house; host or cells: E. coli One Shot BL21 Star
T3 sequence (Q12974 1-167): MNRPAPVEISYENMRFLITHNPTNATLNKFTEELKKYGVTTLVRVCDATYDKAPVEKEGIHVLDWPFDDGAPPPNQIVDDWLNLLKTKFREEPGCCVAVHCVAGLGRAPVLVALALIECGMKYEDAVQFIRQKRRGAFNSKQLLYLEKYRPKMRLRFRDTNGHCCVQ

[1] = FDA-approved drug screen, compared to DMSO
[2] = FDA-approved drug screen, activity compared to DMSO

T2 sequence (O75365 whole entry): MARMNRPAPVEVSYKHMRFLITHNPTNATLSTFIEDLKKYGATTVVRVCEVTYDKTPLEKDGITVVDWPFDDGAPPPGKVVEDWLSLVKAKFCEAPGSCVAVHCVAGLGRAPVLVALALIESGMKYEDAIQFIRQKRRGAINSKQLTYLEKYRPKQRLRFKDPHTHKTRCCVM

SMILES | % Phosphatase Activity (compared to DMSO) PRL-1 (recombinant PRL-1; [1]) [%] | % Phosphatase Activity (compared to DMSO) PRL-3 (recombinant PRL-3; [1]) [%] | % Phosphatase Activity (compared to DMSO) PRL-2 (recombinant PRL-2; [1]) [%] | further results
C=CCNC1=C2C[C@@H](C)C[C@H](OC)[C@H](O)[C@@H](C)/C=C(\C)[C@H](OC(N)=O)[C@@H](OC)/C=C\C=C(/C)C(=O)NC(=CC1=O)C2=O [17-AAG (Tanespimycin)] | 86 | 81 | 83 | 
CCCNS(=O)(=O)Nc1ncnc(OCCOc2ncc(Br)cn2)c1-c1ccc(Br)cc1 [Macitentan] | 93 | 85 | 75 | 
[NH2][Pt]1([NH2])[O]CC(=O)[O]1 [Nedaplatin] | 102 | 94 | 97 | 
COc1cc2c(cc1OC)CC(=O)N(CCCN(C)C[C@H]1Cc3cc(OC)c(OC)cc31)CC2.Cl [Ivabradine HCl] | 108 | 71 | 113 | 
C=CC[N+]1([C@H]2C[C@H]3[C@@H]4CC[C@H]5C[C@H](O)[C@@H](N6CCOCC6)C[C@]5(C)[C@H]4CC[C@]3(C)[C@H]2OC(C)=O)CCCC1 [Rocuronium Bromide] | 100 | 90 | 106 | 
COc1ncc(-c2ccc3nccc(-c4ccnnc4)c3c2)cc1NS(=O)(=O)c1ccc(F)cc1F [GSK2126458 (GSK458)] | 94 | 88 | 85 | 
C=C1[C@H](CO)[C@@H](O)C[C@@H]1n1cnc2c(=O)[nH]c(N)nc21 [Entecavir Hydrate] | 102 | 71 | 92 | 
COC(=O)[C@H](c1ccccc1Cl)N1CCc2sccc2C1 [Clopidogrel] |  |  |  | % Phosphatase Activity (compared to DMSO) PRL-1 (recombinant PRL-1): 100%; % Phosphatase Activity (compared to DMSO) PRL-3 (recombinant PRL-3): 81%; % Phosphatase Activity (compared to DMSO) PRL-2 (recombinant PRL-2): 86%
COc1cnc(NS(=O)(=O)c2ccc(N)cc2)nc1 [Sulfameter] |  |  |  | % Phosphatase Activity (compared to DMSO) PRL-1 (recombinant PRL-1; [2]): 106%; % Phosphatase Activity (compared to DMSO) PRL-3 (recombinant PRL-3; [2]): 91%; % Phosphatase Activity (compared to DMSO) PRL-2 (recombinant PRL-2; [2]): 109%
O=C([O-])Cc1ccccc1Nc1c(Cl)cccc1Cl.[K+] [Diclofenac Potassium] | 115 | 99 | 132 | 
CC(C)(O/N=C(\C(=O)N[C@@H]1C(=O)N2C(C(=O)[O-])=C(C[n+]3ccccc3)CS[C@H]12)c1csc(N)n1)C(=O)O [Ceftazidime Pentahydrate] | 100 | 103 | 106 | 
CC1=C(C(=O)O)N2C(=O)[C@@H](NC(=O)[C@H](N)c3ccccc3)[C@H]2SC1 [Cephalexin] | 98 | 98 | 81 | 
Cn1ncc(Cl)c1-c1cc(C(=O)N[C@H](CN)Cc2ccc(F)c(F)c2)oc1Cl [Uprosertib (GSK2141795)] |  |  |  | % Phosphatase Activity (compared to DMSO) PRL-1 (recombinant PRL-1; [2]): 95%; % Phosphatase Activity (compared to DMSO) PRL-3 (recombinant PRL-3; [2]): 103%; % Phosphatase Activity (compared to DMSO) PRL-2 (recombinant PRL-2; [2]): 95%
O=C(O)Cc1ccccc1Nc1c(Cl)cccc1Cl [Diclofenac Diethylamine] | 119 | 97 | 140 | 
CC(=O)O[C@H]1C[C@@H]2CC[C@@H]3[C@H](CC[C@@]4(C)[C@H]3C[C@H]([N+]3(C)CCCCC3)[C@@H]4OC(C)=O)[C@@]2(C)C[C@@H]1N1CCCCC1 [Vecuronium Bromide] |  |  |  | % Phosphatase Activity (compared to DMSO) PRL-1 (recombinant PRL-1; [2]): 103%; % Phosphatase Activity (compared to DMSO) PRL-3 (recombinant PRL-3; [2]): 87%; % Phosphatase Activity (compared to DMSO) PRL-2 (recombinant PRL-2; [2]): 100%
CCCC(CCC)C(=O)O [Divalproex Sodium] | 105 | 77 | 94 | 
